The values below come from ChEMBL document CHEMBL3525955, “Glucuronidation of the red clover isoflavone irilone by liver microsomes from different species and human UDP-glucuronosyltransferases” (Drug Metab Dispos, 2011).

Each structure is given as a SMILES string.

Data set [1] has as its system Liver microsome. Description: Intrinsic clearance in Sprague-Dawley rat liver microsomes incubated for 5 mins prior to UDPGA addition measured after 90 mins. Type of data set: ADME. Particulars: 1.5 h; call rule not given here. For orientation: Microsomes from liver hold many membrane-bound enzymes, among them those of drug oxidation.
The test system of data set [2] is Liver microsome. Description: Intrinsic clearance in human liver microsomes incubated for 5 mins prior to UDPGA addition measured after 90 mins. The data set is classed as ADME. Particulars: 1.5 h.
The target of data set [3] is T1, UDP-glucuronosyltransferase 2B15 (Homo sapiens, UniProt P54855).
T1 sequence (P54855 whole entry): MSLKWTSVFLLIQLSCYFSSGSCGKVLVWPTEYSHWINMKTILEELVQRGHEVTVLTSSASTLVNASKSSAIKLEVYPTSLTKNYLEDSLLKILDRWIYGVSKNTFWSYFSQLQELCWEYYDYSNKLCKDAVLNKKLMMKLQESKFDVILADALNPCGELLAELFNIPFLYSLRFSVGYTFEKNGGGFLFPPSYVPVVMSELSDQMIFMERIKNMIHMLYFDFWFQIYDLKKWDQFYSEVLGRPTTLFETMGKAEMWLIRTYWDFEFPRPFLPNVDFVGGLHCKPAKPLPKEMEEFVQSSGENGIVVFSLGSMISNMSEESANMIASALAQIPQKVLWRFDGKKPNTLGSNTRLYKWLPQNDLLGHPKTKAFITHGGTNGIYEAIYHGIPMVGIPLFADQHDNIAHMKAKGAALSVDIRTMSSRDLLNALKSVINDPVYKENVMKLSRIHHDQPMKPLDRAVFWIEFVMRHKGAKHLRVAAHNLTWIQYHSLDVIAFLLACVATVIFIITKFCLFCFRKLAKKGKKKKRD
Description: Drug metabolism assessed as human recombinant UGT2B15-mediated glucuronidation incubated for 5 mins prior to UDPGA addition measured after 90 mins by HPLC-DAD analysis. The data set is classed as ADME. Particulars: recombinant enzyme, 1.5 h.

For data set [4], the target named is T2, UDP-glucuronosyltransferase 1A1 (Homo sapiens, UniProt P22309).
T2 sequence (P22309 whole entry): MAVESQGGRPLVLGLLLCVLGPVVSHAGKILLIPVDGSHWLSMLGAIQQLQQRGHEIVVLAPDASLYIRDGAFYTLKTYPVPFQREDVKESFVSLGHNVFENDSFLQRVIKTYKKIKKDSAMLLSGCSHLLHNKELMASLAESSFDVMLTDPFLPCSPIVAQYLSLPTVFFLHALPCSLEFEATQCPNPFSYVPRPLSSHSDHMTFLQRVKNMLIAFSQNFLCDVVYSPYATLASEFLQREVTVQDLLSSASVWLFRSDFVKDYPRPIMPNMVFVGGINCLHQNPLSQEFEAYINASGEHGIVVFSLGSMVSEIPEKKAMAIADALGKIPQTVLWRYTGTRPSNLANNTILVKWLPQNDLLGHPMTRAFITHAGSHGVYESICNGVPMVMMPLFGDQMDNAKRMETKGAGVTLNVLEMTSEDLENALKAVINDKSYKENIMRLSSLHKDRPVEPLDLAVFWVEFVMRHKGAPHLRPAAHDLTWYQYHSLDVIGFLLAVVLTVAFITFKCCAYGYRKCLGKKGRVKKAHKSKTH
Description: Activity of human recombinant UGT1A1 assessed as intrinsic clearance incubated for 5 mins prior to UDPGA addition measured after 90 mins. The data set is classed as ADME. Conditions: recombinant enzyme, 1.5 h.

Data set [5] addresses T2, UDP-glucuronosyltransferase 1A1. Description: Substrate inhibition of human recombinant UGT1A1 assessed as IRI-O-5-monoglucuronide formation incubated for 5 mins prior to UDPGA addition measured after 90 mins by Eadie-Hoftsee plot analysis. The data set is classed as ADME.
Data set [6] can be described thus: Drug metabolism in pig liver microsomes assessed as substrate inhibition of IRI-O-4'-monoglucuronide formation incubated for 5 mins prior to UDPGA addition measured after 90 mins by Eadie-Hoftsee plot analysis. The data set is classed as ADME, Sus scrofa.
Data set [7] concerns Liver microsome. Description: Drug metabolism in Sprague-Dawley rat liver microsomes assessed as IRI-O-4'-monoglucuronide formation incubated for 5 mins prior to UDPGA addition measured after 90 mins by Eadie-Hoftsee plot analysis. The data set is classed as ADME. Particulars: 1.5 h.
Data set [8] is described as follows: Drug metabolism in pig liver microsomes assessed as IRI-O-5-monoglucuronide formation incubated for 5 mins prior to UDPGA addition measured after 90 mins by Eadie-Hoftsee plot analysis. Conditions: 1.5 h. Type of data set: ADME, Sus scrofa.
The target of data set [9] is T3, UDP-glucuronosyltransferase 1A10 (Homo sapiens, UniProt Q9HAW8).
T3 sequence (Q9HAW8 whole entry): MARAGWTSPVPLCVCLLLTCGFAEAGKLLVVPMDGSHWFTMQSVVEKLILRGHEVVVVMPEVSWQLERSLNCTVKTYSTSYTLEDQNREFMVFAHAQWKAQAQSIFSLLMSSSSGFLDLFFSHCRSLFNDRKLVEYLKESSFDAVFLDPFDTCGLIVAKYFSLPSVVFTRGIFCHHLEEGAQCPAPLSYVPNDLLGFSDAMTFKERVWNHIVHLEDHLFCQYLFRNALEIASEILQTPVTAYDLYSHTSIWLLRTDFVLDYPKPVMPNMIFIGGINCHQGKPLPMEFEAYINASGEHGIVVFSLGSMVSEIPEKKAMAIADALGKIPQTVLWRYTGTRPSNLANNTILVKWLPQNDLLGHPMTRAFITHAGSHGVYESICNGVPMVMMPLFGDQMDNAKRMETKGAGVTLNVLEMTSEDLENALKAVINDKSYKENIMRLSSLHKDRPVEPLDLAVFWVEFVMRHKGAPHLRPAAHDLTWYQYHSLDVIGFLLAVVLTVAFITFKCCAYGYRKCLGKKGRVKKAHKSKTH
Description: Substrate inhibition of human recombinant UGT1A10 assessed as IRI-O-4'-monoglucuronide formation incubated for 5 mins prior to UDPGA addition measured after 90 mins by Eadie-Hoftsee plot analysis. Type of data set: ADME.

Data set [10] addresses T4, UDP-glucuronosyltransferase 1A9 (Homo sapiens, UniProt O60656).
T4 sequence (O60656 whole entry): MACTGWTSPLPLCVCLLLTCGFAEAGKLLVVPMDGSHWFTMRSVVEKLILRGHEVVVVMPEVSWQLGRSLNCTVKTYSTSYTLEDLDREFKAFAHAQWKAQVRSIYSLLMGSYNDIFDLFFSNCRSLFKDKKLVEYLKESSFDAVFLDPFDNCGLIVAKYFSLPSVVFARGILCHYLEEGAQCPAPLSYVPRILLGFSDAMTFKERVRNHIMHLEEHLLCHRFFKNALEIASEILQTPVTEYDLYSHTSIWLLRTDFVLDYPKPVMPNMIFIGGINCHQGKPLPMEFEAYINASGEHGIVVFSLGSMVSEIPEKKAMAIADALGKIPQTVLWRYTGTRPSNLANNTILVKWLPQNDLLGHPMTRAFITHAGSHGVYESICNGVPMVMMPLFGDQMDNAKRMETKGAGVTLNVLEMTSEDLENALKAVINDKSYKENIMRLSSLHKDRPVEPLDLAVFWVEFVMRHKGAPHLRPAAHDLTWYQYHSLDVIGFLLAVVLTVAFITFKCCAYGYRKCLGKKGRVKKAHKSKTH
Description: Activity of human recombinant UGT1A9 assessed as intrinsic clearance incubated for 5 mins prior to UDPGA addition measured after 90 mins. Type of data set: ADME. Particulars: recombinant enzyme, 1.5 h.

In data set [11] the target is T3, UDP-glucuronosyltransferase 1A10. Description: Substrate inhibition of human recombinant UGT1A10 assessed as IRI-O-5-monoglucuronide formation incubated for 5 mins prior to UDPGA addition measured after 90 mins by Eadie-Hoftsee plot analysis. Type of data set: ADME.
Data set [12] can be described thus: Intrinsic clearance in pig liver microsomes incubated for 5 mins prior to UDPGA addition measured after 90 mins. The data set is classed as ADME, Sus scrofa. Particulars: 1.5 h.

Regarding `O=c1c(-c2ccc(O)cc2)coc2cc3c(c(O)c12)OCO3`, the CLH in data set [1] amounted to 51000 µL/min/mg; in data set [2], 48500 µL/min/mg; in data set [12], 71800 µL/min/mg. In addition, the Drug metabolism entry in data set [3] is “metabolite_not_detected”. Moreover, the figures for the CL in data set [4] and in data set [10] were 27200 µL/min/mg and 53300 µL/min/mg, respectively. For the same molecule, the Ki in [5] was 8.5 µM; in [6], 49.1 µM; in data set [9], 121 µM; in data set [11] it was “Not Active”. For the same molecule, the Km is 124 µM in [7] and 16.8 µM in data set [8]. For the same molecule, the maximal velocity (Vmax) in [7] is 1.33 nmol/mg/min; in [8], 0.28 nmol/mg/min.

What is called Km is the substrate concentration at which the rate is half of its maximum. As usually defined, the Vmax is the top rate of the reaction or transport when substrate is in excess.
